Where two headings read alike, the source gives them in different places. Each block holds one molecule with its values, some of them ahead of it.
Key:
PKCε = molecular target: T1, PKCε (Homo sapiens, UniProt Q02156); experiment: PKC assay with purified PKCε; format: biochemical; conditions: for effect on purified PKCε (FIG. 7, FIG. 8): preincubated five minutes, radiometric
T1 construct: purchased Calbiochem
T1 sequence (Q02156 1-737): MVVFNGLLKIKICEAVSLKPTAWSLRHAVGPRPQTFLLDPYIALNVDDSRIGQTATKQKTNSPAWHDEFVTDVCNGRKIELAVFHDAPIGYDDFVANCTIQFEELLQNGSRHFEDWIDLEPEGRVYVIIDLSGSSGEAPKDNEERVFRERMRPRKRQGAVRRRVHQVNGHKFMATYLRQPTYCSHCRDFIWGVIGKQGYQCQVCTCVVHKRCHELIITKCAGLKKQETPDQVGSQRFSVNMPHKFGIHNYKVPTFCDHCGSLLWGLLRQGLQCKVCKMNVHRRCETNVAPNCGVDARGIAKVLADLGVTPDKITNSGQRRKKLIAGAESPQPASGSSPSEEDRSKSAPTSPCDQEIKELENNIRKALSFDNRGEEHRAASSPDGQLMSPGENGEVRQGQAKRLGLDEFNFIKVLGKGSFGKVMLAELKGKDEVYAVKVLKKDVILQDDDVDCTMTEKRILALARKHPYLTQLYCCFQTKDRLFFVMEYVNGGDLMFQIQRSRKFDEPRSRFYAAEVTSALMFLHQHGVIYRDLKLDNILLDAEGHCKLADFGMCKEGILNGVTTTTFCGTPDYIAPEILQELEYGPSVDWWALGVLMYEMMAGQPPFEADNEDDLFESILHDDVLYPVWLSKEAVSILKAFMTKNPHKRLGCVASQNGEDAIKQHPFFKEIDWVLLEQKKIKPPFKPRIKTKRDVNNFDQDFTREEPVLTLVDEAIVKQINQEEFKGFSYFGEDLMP
Method: PKC assay. […] 0.5 micro Ci[^γ32P]ATP was added. […] The reaction was stopped by spotting the reaction mixtures on 1×2 cm strips of cellulose phosphate paper (Whatman P81) and immediately washing twice for 1 hr in 0.5% H3PO4. The cellulose phosphate strips were counted in a scintillation counter. In some experiments, phosphatidylserine, diacylglycerol, and/or calcium were removed. […]
To determine their PKC isozyme specificity, fatty acid derivatives were preincubated with purified PKC for five minutes and the PKC activity was measured radiometrically.

PKC [1] = conditions: cited from earlier work; for Ki: A-ring bryologs, read-out: affinity for PKC
PKC [2] = experiment: PKC activation over time in H19-7/IGF-IR hippocampal cells; format: cell-based, rat
Method: (§1) Cell culture. Rat hippocampal H19-7/IGF-IR cells (ATCC, Manassas, Va.) were plated onto poly-L-lysine coated plates and grown at 35° C. in DMEM/10% FCS for several days until about 50% coverage was obtained. The cells were then induced to differentiate into a neuronal phenotype by replacing the medium with 5 ml N2 medium containing 10 ng/ml basic fibroblast growth factor at 39° C. and grown in T-75 flasks at 37° C. Human SH-SY5Y neuroblastoma cells (ATCC) were cultured in 45% F12K/45% MEM/10% FCS. Mouse N2A neuroblastoma cells were cultured in DMEM/10% FCS without glutamine. Rat hippocampal neurons from 18-day-old embryonic Sprague Dawley rat brains were plated on 12- or 96-well plates coated with poly-D-lysine (Sigma-Aldrich, St. Louis, Mo.) in B-27 neurobasal medium containing 0.5 mM glutamine and 25 μM glutamate (Invitrogen, Carlsbad, Calif.) and cultured for three days in the medium without glutamate. The neuronal cells were grown under 5% CO2 in an incubator maintained at 37° C. for 14 days.
Protein kinase C assay. Rat hippocampal cells were cultured and scraped in 0.2 ml homogenization buffer (20 mM Tris-HCl, pH 7.4, 50 mM NaF, 1 μg/ml leupeptin, and 0.1 mM PMSF) and homogenized by sonication a Marsonix microprobe sonicator (5 sec, 10W). To measure PKC, 10 μl of cell homogenate or purified PKC isozyme (purchased from Calbiochem) was incubated for 15 min at 37° C. in the presence of 10 μM histones, 4.89 mM CaCl2, 1.2 μg/μl phosphatidyl-L-serine, 0.18 μg/μl 1,2-dioctanoyl-sn-glycerol, 10 mM MgCl2, 20 mM HEPES (pH 7.4), 0.8 mM EDTA, 4 mM EGTA, 4% glycerol, 8 μg/ml aprotinin, 8 μg/ml leupeptin, and 2 mM benzamidine. 0.5 Ci [^γ32P]ATP was added and ^32P-phosphoprotein formation was measured by adsorption onto phosphocellulose as described previously. Nelson and Alkon, J. Neurochemistry (1995), vol. 65, pp. 2350-2357. For measurements of activation by BR-101 (DCP-LA) and similar compounds. PKC activity was measured in the absence of diacylglycerol and phosphatidylserine and PKC δ, ε, η, and μ were measured in the absence of added EGTA and CaCl2, as described by Kanno et al. (J. Lipid Res. 2006, vol. 47, pp. 1146-1150). Low concentrations of Ca^2+ are used because high Ca^2+ interacts with the PKC phosphatidylserine binding site and prevents activation. For measurements of bryostatin activation, 1,2-diacylglycerol was omitted unless otherwise stated.

TACE = TACE activity in neuronal cells; format: cell-based, human, mouse; conditions: SH-SY5Y cells, N2a cells, primary neurons from rat hippocampus
Method: TACE Assay. TACE was measured by incubating 5 μl cell homogenate, 3 μl buffer (50 mM Tris-HCl 7.4 plus 25 mM NaCl plus 4% glycerol), and 1 μl of 100 μM TACE substrate (Aβz-[…]-DPa) (Calbiochem) for 20 min at 37° C. 1.5-ml polypropylene centrifuge tubes. Jin et al., Anal. Biochem. (2002), vol. 302, pp. 269-275. The reaction was stopped by cooling to 4° C. The samples were diluted to 1 ml and the fluorescence was rapidly measured (ex=320 nm, em=420 nm) in a Spex Fluorolog 2 spectrofluorometer.

[3] = system: SH-SY5Y neuroblastoma cells; experiment: Cell survival and proliferation (alamar Blue, CyQuant); format: cell-based, human; conditions: alamar Blue and CyQuant staining
Method: (§2) Aβ Measurement and Cell Viability Assay. Aβ was measured using an Aβ 1-42 human fluorimetric ELISA kit (Invitrogen) according to the manufacturer's instructions. Results were measured in a Biotek Synergy HT microplate reader. AlamarBlue and CyQuant NF (Invitrogen) according to the manufacturer's instructions.

Aβ = Aβ production in N2a neuroblastoma cells transfected with human APPSwe/PSID; format: cell-based, mouse; conditions: 24 hours, various concentrations
Method: as §1, §2
To measure the effects of PKCε activation on Aβ production, mouse neuro2a (N2a) neuroblastoma cells transfected with human APPSwe/PSID were used, which produce large quantities of Aβ. Petanceska et al., J. Neurochem. (1996), vol. 74, pp. 1878-1884. […] With bryostatin, which activates PKC by binding to the diacylglycerol-binding site, the inhibition was biphasic with concentrations of 20 nM or higher producing no net effect. This may be explained by the ability of this class of PKC activators to downregulate PKC when used at high concentrations.

[4] = system: Endothelin-converting enzyme (ECE); experiment: Endothelin-converting enzyme (ECE) activity in neuroblastoma cells; format: cell-based, human; conditions: bryostatin 0.27 nM, BR-101 1 μM, BR-111 1 μM
Method: ECE assay. […] neuroblastoma cells were incubated with bryostatin (0.27 nM), BR-101 (DCP-LA) (1 μM), and BR-111 (DHA-CP6) (1 μM). Endothelin-converting enzyme (ECE) was measured fluorimetrically using the method of Johnson and Ahn (Anal. Biochem. (2000), vol. 286, pp. 112-118). A sample of cell homogenate (20 μl) was incubated in 50 mM MES-KOH, pH 6.0, 0.01% C12E10 (polyoxyethylene-10-lauryl ether), and 15 μM McaBK2 (7-Methoxycoumarin-4-acetyl [Ala7-(2,4-Dinitrophenyl)Lys9]-bradykinin trifluoroacetate salt) (Sigma-Aldrich). After 60 min at 37° C., the reaction was quenched by adding trifluoroacetic acid to 0.5%. The sample was diluted to 1.4 ml with water and the fluorescence was measured at ex=334 nm, em=398 nm.

α-secretase = conditions: cited from earlier work
NIC 60 cell line screen = conditions: cited from earlier work
PKC [5] = conditions: competition with [3H] phorbol dibutyrate; cited from earlier work

Molecule: CCCCCC1OC1C/C=C\CCCCCCCC(=O)OC (stereo in doubt) [BR-117, vernolic acid methyl ester]
effect on purified PKCε (FIG. 7, FIG. 8) (PKCε): little or no effect

Molecule: CCCCCCCC(=O)OC1C(=CC(=O)OC)CC2CC(CO)OC(=O)CC(O)CCOC(CCCc3ccc(Br)cc3)CC3CCOC(C=CC(C)(C)C1(O)O2)O3 (stereo not drawn) [bryolog 5]
Ki (PKC [1]): 1.9 nM

concentrations at which PKCε is inhibited (PKCε): above 1 μM
Molecule: CCCCC[C@H]1O[C@H]1CC1CC1CCCCCCCC(=O)OC (stereo partly drawn) [BR-109, vernolic acid methyl ester cyclopropane]

Molecule: CCCCCC1CC1CC1CC1CCCCCCCCO (stereo not drawn) [BR-105, linoleic alcohol dicyclopropane]
effect on purified PKCε (FIG. 7, FIG. 8) (PKCε): little or no effect

concentration needed to activate PKC, times lower than for BR-101 (DCP-LA) (PKCε): approximately 100 times | effect on purified PKCε (FIG. 7, FIG. 8) (PKCε): activated
Molecule: CCC1CC1CC1CC1CC1CC1CC1CC1CC1CC1CCCC(=O)OC (stereo not drawn) [BR-114]

effect on purified PKCε (FIG. 7, FIG. 8) (PKCε): little or no effect
Molecule: epoxystearic acid [BR-116]

Molecule: CCCCCCCC(=O)OC1C(=CC(=O)OC)CC2CC(CO)OC(=O)CC(O)CCOC(c3ccccc3)CC3CCOC(C=CC(C)(C)C1(O)O2)O3 (stereo not drawn) [bryolog 4]
Ki (PKC [1]): 2.3 nM

concentration needed to activate PKC, times lower than for BR-101 (DCP-LA) (PKCε): approximately 100 times | effect on purified PKCε (FIG. 7, FIG. 8) (PKCε): activated
Molecule: CCCCCC1CC1CC1CC1CC1CC1CC1CC1CCCC(=O)OC (stereo not drawn) [BR-115, methyl 4-(2-((2-((2-((-pentylcyclopropyl)methyl)cyclopropyl)methyl)cyclopropyl)methyl)cyclopropyl)butanoate methyl ester]

Molecule: CCC/C=C/C=C/C(=O)O[C@H]1/C(=C/C(=O)OC)C[C@H]2C[C@H]([C@@H](C)O)OC(=O)C[C@H](O)C[C@@H]3C[C@H](OC(C)=O)C(C)(C)[C@](O)(C[C@@H]4C/C(=C/C(=O)OC)C[C@H](/C=C/C(C)(C)[C@]1(O)O2)O4)O3 [Bryostatin-1]
PKC downregulation following activation (PKC [2]; 0.04 nM and 0.2 nM): 20% | time of return of PKC to baseline (PKC [2]; 0.04 nM and 0.2 nM): ≤ 24 h | PKC activation (PKC [2]; 0.04 nM and 0.2 nM, data not shown): 2 fold | PKC activity at 8 hours (downregulation) (PKC [2]; data not shown): at or near the baseline | TACE activity (TACE): small increases | effect on cell survival [3]: no effect | levels of intracellular Aβ (Aβ): markedly reduced | levels of secreted Aβ (Aβ): markedly reduced | ECE activity [4]: sustained increase | increase of initial rate of α-secretase activity (α-secretase; 10 μM): 16 fold | increase of initial rate of α-secretase activity (α-secretase; 100 μM): 132 fold

Molecule: CCCCCCCCCCCCCC(=O)O[C@@H]1[C@@H](C)[C@@]2(O)[C@@H](C=C(CO)C[C@]3(O)C(=O)C(C)=C[C@@H]23)[C@@H]2C(C)(C)[C@]12OC(C)=O [PMA, phorbol 12-myristate 13-acetate]
PKC activity at 8 hours (downregulation) (PKC [2]; data not shown): strongly downregulated | EC50 (PKC [1]; read-out: affinity for PKC (EC50)): […]

Molecule: CCCCCCCC(=O)OC1C(=CC(=O)OC)CC2CC(CO)OC(=O)CC(O)CCOC(C(C)(C)C)CC3CCOC(C=CC(C)(C)C1(O)O2)O3 (stereo not drawn) [bryolog 3]
Ki (PKC [1]): 6.5 nM

Molecule: CC1=CC[C@H](C)C(C)(C)[C@@H]1/C=C/C(C)=C/CC[C@@]1(CO)[C@H](CCCO)/C(=C(/C)C=O)CC[C@]1(C)O [Iripallidal]
GI50 (concentration required to inhibit growth by 50%) (NIC 60 cell line screen): micromolar to nanomolar range

effect on purified PKCε (FIG. 7, FIG. 8) (PKCε): little or no effect
Molecule: CCC1CC1CC1CC1CC1CC1CCCCCCCCO (stereo not drawn) [BR-104, linolenic alcohol tricyclopropane]

Molecule: CC1=C[C@]23C(=O)[C@@H](C=C(COC(=O)c4ccccc4)[C@@H](O)[C@]2(O)[C@H]1OC(=O)c1ccccc1)[C@H]1[C@@H](C[C@H]3C)C1(C)C [Ingenol 3,20-dibenzoate]
Ki (PKC [5]): 240 nM

Reference: patent US20120027687A1, “FATTY ACID PROTEIN KINASE C ACTIVATORS AND ANTICOAGULANT FOR THE TREATMENT OF STROKE” (priority 2010, published 2012)
